The record followed here is US10519177B2, “Heterocyclic compounds and uses thereof” (Plexxikon Inc., priority 2013, dated 2019).

This experiment concerns the target BRD4-BD1 (44-164) (Homo sapiens (Human), UniProt O60885). Put plainly: Alphascreen binding assay BRD4-BD1. As to conditions: BRD4(1) H4; read-out: Biochemical activity (IC50 μM) BRD4(1) H4. The gist of the method: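 First, compound was preincubated 1 h at room temperature with the His-tagged BRD4 protein (BD1 44-164 or tandem BD12 1-477) and acetylated H4 peptide. Next, donor and acceptor beads were added at 7.5 μg/ml final. After 30 min, AlphaScreen emission was recorded.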
On the technique in general: In Alpha technology, singlet oxygen from a donor bead excites a nearby acceptor bead.

Molecules are shown by their SMILES.

As a reminder, the IC50 is the midpoint of a concentration-inhibition curve. For the compound `C=CCn1cc(-c2cn(S(=O)(=O)C(C)CC)c3cc(-c4c(C)noc4C)cnc23)cn1` (centres unmarked) [P-0138, 4-[3-(1-allylpyrazol-4-yl)-1-sec-butyl-sulfonyl-pyrrolo[3,2-b]pyridin-6-yl]-3,5-dimethyl-isoxazole], the half-inhibitory concentration (IC50) is under 1 µM.
To `C=CCn1cc(-c2cn(S(=O)(=O)C3CC3)c3cc(-c4c(C)noc4C)cnc23)cn1` [P-0139, 4-[3-(1-allylpyrazol-4-yl)-1-cyclopropyl-sulfonyl-pyrrolo[3,2-b]pyridin-6-yl]-3,5-dimethyl-isoxazole] belongs under 1 µM; to `C=CCn1cc(-c2cn(S(=O)(=O)CC3CC3)c3cc(-c4c(C)noc4C)cnc23)cn1` [P-0140, 4-[3-(1-allylpyrazol-4-yl)-1-(cyclopropyl-methylsulfonyl)pyrrolo[3,2-b]pyridin-6-yl]-3,5-dimethyl-isoxazole], under 1 µM; to `Cc1noc(C)c1-c1cnc2[nH]cc(Sc3cccc(F)c3)c2c1` [P-0141, 4-[3-(3-fluorophenyl)sulfanyl-1H-pyrrolo[2,3-b]pyridin-5-yl]-3,5-dimethyl-isoxazole], under 1 µM.
To `Cc1noc(C)c1-c1cnc2[nH]cc([S+]([O-])c3cccc(F)c3)c2c1` (centres unmarked) [P-0142, 4-[3-(3-fluorophenyl)sulfinyl-1H-pyrrolo[2,3-b]pyridin-5-yl]-3,5-dimethyl-isoxazole] belongs under 1 µM.
On to `Cc1noc(C)c1-c1cnc2[nH]cc(S(=O)(=O)c3cccc(F)c3)c2c1` [P-0143, 4-[3-(3-fluorophenyl)sulfonyl-1H-pyrrolo[2,3-b]pyridin-5-yl]-3,5-dimethyl-isoxazole], for which the IC50 was under 1 µM.
To `Cc1noc(C)c1-c1cnc2[nH]cc(Sc3ccccc3)c2c1` [P-0144, 3,5-dimethyl-4-(3-phenylsulfanyl-1H-pyrrolo[2,3-b]pyridin-5-yl)isoxazole] belongs under 1 µM.
To `Cc1noc(C)c1-c1cnc2[nH]cc(S(=O)(=O)c3ccccc3)c2c1` [P-0145, 4-[3-(benzenesulfonyl)-1H-pyrrolo[2,3-b]pyridin-5-yl]-3,5-dimethyl-isoxazole] belongs under 1 µM.
To `Cc1noc(C)c1-c1cnc2c(-c3cnn(CC(F)(F)F)c3)cn(S(=O)(=O)c3ccccc3)c2c1` [P-0146, 4-[1-(benzenesulfonyl)-3-[1-(2,2,2-trifluoroethyl)pyrazol-4-yl]pyrrolo[3,2-b]pyridin-6-yl]-3,5-dimethyl-isoxazole] belongs under 1 µM; to `COCCn1cc(-c2cn(S(=O)(=O)c3ccccc3)c3cc(-c4c(C)noc4C)cnc23)cn1` [P-0147, 4-[1-(benzenesulfonyl)-3-[1-(2-methoxyethyl)pyrazol-4-yl]pyrrolo[3,2-b]pyridin-6-yl]-3,5-dimethyl-isoxazole], under 1 µM.
Regarding `Cc1noc(C)c1-c1cnc2c(-c3cnn(C4CCOC4)c3)cn(S(=O)(=O)c3ccccc3)c2c1` (centres unmarked) [P-0148, 4-[1-(benzenesulfonyl)-3-(1-tetrahydrofuran-3-ylpyrazol-4-yl)pyrrolo[3,2-b]pyridin-6-yl]-3,5-dimethyl-isoxazole], the half-inhibitory concentration (IC50) was under 1 µM.
To `Cc1noc(C)c1-c1cnc2c(-c3cnn(CC(F)(F)F)c3)cn(S(=O)(=O)C3CCCC3)c2c1` [P-0149, 4-[1-cyclopentyl-sulfonyl-3-[1-(2,2,2-trifluoroethyl)pyrazol-4-yl]pyrrolo[3,2-b]pyridin-6-yl]-3,5-dimethyl-isoxazole] belongs under 1 µM; to `CCCS(=O)(=O)n1cc(-c2cnn(CC(F)(F)F)c2)c2ncc(-c3c(C)noc3C)cc21` [P-0150, 3,5-dimethyl-4-[1-propylsulfonyl-3-[1-(2,2,2-trifluoroethyl)pyrazol-4-yl]pyrrolo[3,2-b]pyridin-6-yl]isoxazole], under 1 µM; to `COCCn1cc(-c2cn(S(=O)(=O)C3CCCC3)c3cc(-c4c(C)noc4C)cnc23)cn1` [P-0151, 4-[1-cyclopentyl-sulfonyl-3-[1-(2-methoxyethyl)pyrazol-4-yl]pyrrolo[3,2-b]pyridin-6-yl]-3,5-dimethyl-isoxazole], under 1 µM.
Under `CCCS(=O)(=O)n1cc(-c2cnn(CCOC)c2)c2ncc(-c3c(C)noc3C)cc21` [P-0152, 4-[3-[1-(2-methoxy-ethyl)pyrazol-4-yl]-1-propylsulfonyl-pyrrolo[3,2-b]pyridin-6-yl]-3,5-dimethyl-isoxazole] stands under 1 µM; under `Cc1noc(C)c1-c1cnc2c(-c3cnn(C4CCOC4)c3)cn(S(=O)(=O)C3CCCC3)c2c1` (centres unmarked) [P-0153, 4-[1-cyclopentyl-sulfonyl-3-(1-tetrahydrofuran-3-ylpyrazol-4-yl)pyrrolo[3,2-b]pyridin-6-yl]-3,5-dimethyl-isoxazole], under 1 µM.
To `CCCS(=O)(=O)n1cc(-c2cnn(C3CCOC3)c2)c2ncc(-c3c(C)noc3C)cc21` (centres unmarked) [P-0154, 3,5-dimethyl-4-[1-propylsulfonyl-3-(1-tetrahydrofuran-3-ylpyrazol-4-yl)pyrrolo[3,2-b]pyridin-6-yl]isoxazole] belongs under 1 µM.
`Cc1noc(C)c1-c1cnc2c(C#CCO)cn(S(=O)(=O)c3ccccc3)c2c1` [P-0155, 3-[1-(benzenesulfonyl)-6-(3,5-dimethylisoxazol-4-yl)pyrrolo[3,2-b]pyridin-3-yl]prop-2-yn-1-ol]: the IC50 is under 1 µM.
To `Cc1noc(C)c1-c1cnc2c(C#CCO)cn(S(=O)(=O)C3CCCC3)c2c1` [P-0156, 3-[1-cyclopentylsulfonyl-6-(3,5-dimethylisoxazol-4-yl)pyrrolo[3,2-b]pyridin-3-yl]prop-2-yn-1-ol] belongs under 1 µM; to `Cc1noc(C)c1-c1cnc2c(C#CCF)cn(S(=O)(=O)C3CCCC3)c2c1` [P-0158, 4-[1-cyclopentylsulfonyl-3-(3-fluoroprop-1-ynyl)pyrrolo[3,2-b]pyridin-6-yl]-3,5-dimethyl-isoxazole], under 1 µM.
To `Cc1noc(C)c1-c1cnc2ccn(C(C)c3ccccc3)c2c1` (centres unmarked) [P-0159, 3,5-dimethyl-4-[1-(1-phenylethyl)pyrrolo[3,2-b]pyridin-6-yl]isoxazole] belongs under 1 µM; to `C=CCn1cc(-c2cn(Cc3ccccc3)c3cc(-c4c(C)noc4C)cnc23)cn1` [P-0160, 4-[3-(1-allylpyrazol-4-yl)-1-benzyl-pyrrolo[3,2-b]pyridin-6-yl]-3,5-dimethyl-isoxazole], under 1 µM; to `Cc1noc(C)c1-c1cnc2c(-c3cnn(C)c3)cn(C(C)c3ccccc3)c2c1` (centres unmarked) [P-0161, 3,5-dimethyl-4-[3-(1-methylpyrazol-4-yl)-1-(1-phenylethyl)pyrrolo[3,2-b]pyridin-6-yl]isoxazole], under 1 µM.
In the case of `Cc1noc(C)c1-c1cnc2ccn(Cc3ccccc3)c2c1` [P-0162, 4-(1-benzylpyrrolo[3,2-b]pyridin-6-yl)-3,5-dimethyl-isoxazole], the IC50 is under 1 µM.
To `Cc1noc(C)c1-c1cnc2c(-c3cn[nH]c3)cn(S(=O)(=O)c3ccccc3)c2c1` [P-0163, 4-[1-(benzenesulfonyl)-3-(1H-pyrazol-4-yl)pyrrolo[3,2-b]pyridin-6-yl]-3,5-dimethyl-isoxazole] belongs under 1 µM; to `Cc1noc(C)c1-c1cnc2[nH]cc(P(C)(=O)c3ccccc3)c2c1` (centres unmarked) [P-0165, 3,5-dimethyl-4-[3-[methyl(phenyl)phosphoryl]-1H-pyrrolo[2,3-b]pyridin-5-yl]isoxazole], under 1 µM.
Under `Cc1noc(C)c1-c1cnc2[nH]cc(P(=O)(c3ccccc3)c3ccccc3)c2c1` [P-0166, 4-(3-diphenylphosphoryl-1H-pyrrolo[2,3-b]pyridin-5-yl)-3,5-dimethyl-isoxazole] stands under 1 µM; under `Cc1noc(C)c1-c1cnc2c(-c3cn[nH]c3)cn(S(=O)(=O)C3CCCC3)c2c1` [P-0167, 4-[1-cyclopentylsulfonyl-3-(1H-pyrazol-4-yl)pyrrolo[3,2-b]pyridin-6-yl]-3,5-dimethyl-isoxazole], under 1 µM.
With `Cc1noc(C)c1-c1cnc2c(-c3cnn(C4CCCCO4)c3)cn(S(=O)(=O)c3ccccc3)c2c1` (centres unmarked) [P-0168, 4-[1-(benzenesulfonyl)-3-(1-tetrahydropyran-2-ylpyrazol-4-yl)pyrrolo[3,2-b]pyridin-6-yl]-3,5-dimethyl-isoxazole], the half-inhibitory concentration (IC50) was under 1 µM.
Under `Cc1nc(Cn2cc(-c3cnn(C)c3)c3ncc(-c4c(C)noc4C)cc32)cs1` [P-0170, 3,5-dimethyl-4-[3-(1-methylpyrazol-4-yl)-1-[(2-methylthiazol-4-yl)methyl]pyrrolo[3,2-b]pyridin-6-yl]isoxazole] stands under 1 µM; under `Cc1noc(C)c1-c1cnc2c(-c3cnn(C)c3)cn(Cc3cscn3)c2c1` [P-0171, 3,5-dimethyl-4-[3-(1-methylpyrazol-4-yl)-1-(thiazol-4-ylmethyl)pyrrolo[3,2-b]pyridin-6-yl]isoxazole], under 1 µM; under `Cc1noc(C)c1-c1cnc2c(-c3cnn(C)c3)cn(Cc3ccccc3F)c2c1` [P-0172, 4-[1-[(2-fluorophenyl)methyl]-3-(1-methylpyrazol-4-yl)pyrrolo[3,2-b]pyridin-6-yl]-3,5-dimethyl-isoxazole], under 1 µM.
As to `Cc1noc(C)c1-c1cnc2c(-c3cnn(C)c3)cn(Cc3c(F)cccc3F)c2c1` [P-0173, 4-[1-[(2,6-difluorophenyl)methyl]-3-(1-methylpyrazol-4-yl)pyrrolo[3,2-b]pyridin-6-yl]-3,5-dimethyl-isoxazole], the 50% inhibitory concentration (IC50) was under 1 µM.
Under `Cc1noc(C)c1-c1cnc2c(-c3cnn(C(F)F)c3)cn(Cc3ccccc3F)c2c1` [P-0176, 4-[3-[1-(difluoromethyl)pyrazol-4-yl]-1-[(2-fluorophenyl)methyl]pyrrolo[3,2-b]pyridin-6-yl]-3,5-dimethyl-isoxazole] stands under 1 µM.
To `Cc1noc(C)c1-c1cnc2c(-c3cnn(C(F)F)c3)cn(C(C)c3ccccc3)c2c1` (centres unmarked) [P-0177, 4-[3-[1-(difluoromethyl)pyrazol-4-yl]-1-(1-phenylethyl)pyrrolo[3,2-b]pyridin-6-yl]-3,5-dimethyl-isoxazole] belongs under 1 µM.
